Assays:
Assay type in all cases: in vivo
[1] = test system: AMARE; assay: Postemergence herbicidal activity, greenhouse, visual injury: AMARE; details: 20-22 d
Procedure: (§1) Evaluation of Postemergence Herbicidal Safening in Cereal Crops
(§2) Seeds of the desired test plant species were planted in Sun Gro MetroMix® 306 planting mixture, which typically has a pH of 6.0 to 6.8 and an organic matter content of about 30 percent, in plastic pots with a surface area of 103.2 square centimeters (cm^2). When required to ensure good germination and healthy plants, a fungicide treatment and/or other chemical or physical treatment was applied. The plants were grown for 7-36 days (d) in a greenhouse with an approximate 14-hour (h) photoperiod which was maintained at about 18° C. during the day and 17° C. during the night. Nutrients and water were added on a regular basis and supplemental lighting was provided with overhead metal halide 1000-Watt lamps as necessary. The plants were employed for testing when they reached the second or third true leaf stage.
(§3) Treatments consisted of the acids or esters of compounds 1-10 and cloquintocet-mexyl (CQC-M), fenchlorazole-ethyl, mefenpyr-diethyl alone and in combination. Weighed amounts of acid or methyl esters of the compounds of formula (I) were dissolved in a volume of 97:3 v/v acetone/dimethylsulfoxide (DMSO) to obtain concentrated solutions. […] The concentrated solutions of the test compound were diluted with the addition of an aqueous mixture containing acetone, water, isopropyl alcohol, DMSO, Agri-Dex crop oil concentrate, and Triton® X-77 surfactant in a 64.7:26.0:6.7:2.0:0.7:0.01 v/v ratio. Test compounds were diluted to the appropriate application rate with a dilution solution which was prepared by mixing the appropriate volume of 97:3 v/v acetone/DMSO and the appropriate volume of an aqueous mixture containing acetone, water, isopropyl alcohol, DMSO, Agri-Dex crop oil concentrate, and Triton® X-77 surfactant in a 64.7:26.0:6.7:2.0:0.7:0.01 v/v ratio. Compound requirements are based upon a 12 mL application volume at a rate of 187 liters per hectare (L/ha). The concentrated solutions of the safener were prepared following the same procedure. Weighed amounts of safener were dissolved in a volume of 97:3 v/v acetone/DMSO to obtain concentrated safener solutions.
(§4) Spray solutions of the herbicide safener and test compound mixtures were prepared by adding the concentrated solutions to the appropriate amount of dilution solution to form 12 mL spray solution with active ingredients in combinations.
(§5) Formulated compounds were applied to the plant material with an overhead Mandel track sprayer equipped with 8002E nozzles calibrated to deliver 187 L/ha over an application area of 0.503 square meters (m^2) at a spray height of 18 inches (43 centimeters (cm)) above average plant canopy. Control plants were sprayed in the same manner with the solvent blank.
(§6) The treated plants and control plants were placed in a greenhouse as described above and watered by sub-irrigation to prevent wash-off of the test compounds. After 20-22 d, the condition of the test plants as compared with that of the control plants was determined visually and scored on a scale of 0 to 100 percent where 0 corresponds to no injury and 100 corresponds to complete kill.
(§7) Colby's equation was used to determine the herbicidal effects expected from the mixtures (Colby, S. R. Calculation of the synergistic and antagonistic response of herbicide combinations. Weeds 1967, 15, 20-22.).
(§8) The following equation was used to calculate the expected activity of mixtures containing two active ingredients, A and B: Expected=A+B−(A×B/100) […]

[2] = test system: wild mustard (Sinapis arvensis L.; SINAR); assay: Postemergence herbicidal activity, greenhouse, visual injury: SINAR
[3] = test system: corn poppy (Papaver rhoeas L; PAPRH); assay: Postemergence herbicidal activity, greenhouse, visual injury: corn poppy; details: for PAPRH Ob (visual injury): 20-22 d
Procedure: as §1, §2, §3, §4, §5, §6, §7
(§9) The following equation was used to calculate the expected activity of mixtures containing two active ingredients, A and B: Expected=A+B−(A×B/100)
(§10) A=observed efficacy of active ingredient A at the same concentration as used in the mixture.
(§11) B=observed efficacy of active ingredient B at the same concentration as used in the mixture.

[4] = test system: purple deadnettle (Lamium purpureum L; LAMPU); assay: Postemergence herbicidal activity, greenhouse, visual injury: purple deadnettle
Procedure: as §1, §2, §3, §4, §5, §6, §7, §9, §10, §11

[5] = test system: CIRAR; assay: Postemergence herbicidal activity, greenhouse, visual injury: CIRAR; details: for CIRAR Ob (visual injury): 20-22 d
Procedure: as §1, §2, §3, §4, §5, §6, §7, §9, §10, §11

[6] = test system: wild pansy (Viola tricolor; VIOTR); assay: Postemergence herbicidal activity, greenhouse, visual injury: VIOTR
[7] = test system: spring barley (Hordeum vulgare L; HORVS); assay: Postemergence herbicidal safening in cereal crops, greenhouse, visual injury: spring barley
Procedure: as §1, §2, §3, §4, §5, §6, §7, §9, §10, §11

[8] = test system: GALAP; assay: Postemergence herbicidal activity, greenhouse, visual injury: GALAP; details: 20-22 d
Procedure: as §1, §2, §3, §4, §5, §6, §7, §8

[9] = test system: winter wheat (Triticum aestivum L; TRZAW); assay: Postemergence herbicidal safening in cereal crops, greenhouse, visual injury: winter wheat; details: 20-22 d
Procedure: as §1, §2, §3, §4, §5, §6, §7, §9, §10, §11

[10] = test system: spring wheat (Triticum aestivum L; TRZAS); assay: Postemergence herbicidal safening in cereal crops, greenhouse, visual injury: spring wheat
Procedure: as §1, §2, §3, §4, §5, §6, §7, §9, §10, §11

[11] = test system: MATCH; assay: Postemergence herbicidal activity, greenhouse, visual injury: MATCH; details: for MATCH Ob (visual injury): 20-22 d
Procedure: as §1, §2, §3, §4, §5, §6, §7, §9, §10, §11

[12] = Compound 10 0, CQC-M 8.75 g ae/ha
[13] = Compound 10 0, CQC-M 17.5 g ae/ha
[14] = Compound 10 0, CQC-M 35 g ae/ha
[15] = Compound 10 0, CQC-M 70 g ae/ha
[16] = Compound 10 0, CQC-M 140 g ae/ha

CCCCCC(C)OC(=O)COc1ccc(Cl)c2cccnc12 (stereo not shown) [CQC-M, cloquintocet-mexyl, reference compound]
0%: AMARE Ob (visual injury) ([1]; safener alone 35 g/ha) | AMARE Ob (visual injury) ([1]; safener alone 70 g/ha) | AMARE Ob (visual injury) ([1]; safener alone 140 g/ha) | SINAR Ob (Observed values, % control) [2, 12] | SINAR Ob (Observed values, % control) [2, 13] | SINAR Ob (Observed values, % control) [2, 14] | SINAR Ob (Observed values, % control) [2, 15] | SINAR Ob (Observed values, % control) [2, 16] | PAPRH Ob (Observed values, % control) [3, 12] | PAPRH Ob (Observed values, % control) [3, 13] | PAPRH Ob (Observed values, % control) [3, 14] | PAPRH Ob (Observed values, % control) [3, 15] | PAPRH Ob (Observed values, % control) [3, 16] | PAPRH Ob (visual injury) ([3]; safener alone 8.75 g/ha) | PAPRH Ob (visual injury) ([3]; safener alone 70 g/ha) | PAPRH Ob (visual injury) ([3]; safener alone 140 g/ha) | LAMPU Ob (Observed values, % control) [4, 12] | LAMPU Ob (Observed values, % control) [4, 13] | LAMPU Ob (Observed values, % control) [4, 14] | LAMPU Ob (Observed values, % control) [4, 15] | LAMPU Ob (Observed values, % control) [4, 16] | pest or weed control at 35 g/ha ([4]; Lamium purpureum, post-emergence, 480 h, safener alone 35 g/ha, 20-22 d, read-out: LAMPU Ob (visual injury)) | pest or weed control at 140 g/ha ([4]; Lamium purpureum, post-emergence, 480 h, safener alone 140 g/ha, 20-22 d, read-out: LAMPU Ob (visual injury)) | CIRAR Ob (Observed values, % control) [5, 12] | CIRAR Ob (Observed values, % control) [5, 13] | CIRAR Ob (Observed values, % control) [5, 14] | CIRAR Ob (Observed values, % control) [5, 15] | CIRAR Ob (Observed values, % control) [5, 16] | CIRAR Ob (visual injury) ([5]; safener alone 70 g/ha) | CIRAR Ob (visual injury) ([5]; safener alone 140 g/ha) | VIOTR Ob (Observed values, % control) [6, 12] | VIOTR Ob (Observed values, % control) [6, 13] | VIOTR Ob (Observed values, % control) [6, 14] | VIOTR Ob (Observed values, % control) [6, 15] | VIOTR Ob (Observed values, % control) [6, 16] | pest or weed control at 0.547 g/ha ([7]; Hordeum vulgare, post-emergence, 480 h, safener alone 0.547 g/ha, 20-22 d, read-out: HORVS Ob (visual injury)) | pest or weed control at 2.1875 g/ha ([7]; Hordeum vulgare, post-emergence, 480 h, safener alone 2.1875 g/ha, 20-22 d, read-out: HORVS Ob (visual injury)) | pest or weed control at 8.75 g/ha ([7]; Hordeum vulgare, post-emergence, 480 h, safener alone 8.75 g/ha, 20-22 d, read-out: HORVS Ob (visual injury)) | HORVS Ob (Observed values, % control) ([7]; in vivo) | GALAP Ob (visual injury) ([8]; safener alone 35 g/ha) | GALAP Ob (visual injury) ([8]; safener alone 70 g/ha) | GALAP Ob (visual injury) ([8]; safener alone 140 g/ha) | TRZAW Ob (visual injury) ([9]; safener alone 0.547 g/ha) | TRZAW Ob (visual injury) ([9]; safener alone 2.1875 g/ha) | TRZAW Ob (visual injury) ([9]; safener alone 8.75 g/ha) | TRZAW Ob (visual injury) ([9]; safener alone 35 g/ha) | TRZAW Ob (visual injury) ([9]; safener alone 70 g/ha) | TRZAW Ob (visual injury) ([9]; safener alone 140 g/ha) | pest or weed control at 0.547 g/ha ([10]; Triticum aestivum, post-emergence, 480 h, safener alone 0.547 g/ha, 20-22 d, read-out: TRZAS Ob (visual injury)) | pest or weed control at 2.1875 g/ha ([10]; Triticum aestivum, post-emergence, 480 h, safener alone 2.1875 g/ha, 20-22 d, read-out: TRZAS Ob (visual injury)) | pest or weed control at 8.75 g/ha ([10]; Triticum aestivum, post-emergence, 480 h, safener alone 8.75 g/ha, 20-22 d, read-out: TRZAS Ob (visual injury)) | pest or weed control at 35 g/ha ([10]; Triticum aestivum, post-emergence, 480 h, safener alone 35 g/ha, 20-22 d, read-out: TRZAS Ob (visual injury)) | pest or weed control at 140 g/ha ([10]; Triticum aestivum, post-emergence, 480 h, safener alone 140 g/ha, 20-22 d, read-out: TRZAS Ob (visual injury)) | TRZAS Ob (Observed values, % control) ([10]; in vivo) | MATCH Ob (Observed values, % control) [11, 12] | MATCH Ob (Observed values, % control) [11, 13] | MATCH Ob (Observed values, % control) [11, 14] | MATCH Ob (Observed values, % control) [11, 15] | MATCH Ob (Observed values, % control) [11, 16] | MATCH Ob (visual injury) ([11]; safener alone 70 g/ha) | MATCH Ob (visual injury) ([11]; safener alone 140 g/ha)
